This data set in a line: recombinant barcode read abundance after kanamycin selection (control-corrected) (log10(CPM+1)); higher = more efficient recombination; sequences stand for … in AGTGCAGAGAAAATCGGCCAGTTTTCTCTGCCTGCAGTCCGCATGCCGT…ATTTATGCAGCGGACTGCCTTTCTCCCAAAGTGATAAACCGGACAGTATCATGGACCGGTTTTCCCGGTAATCCGTATTTGCAAGGTTGGTTTCACT; site = the 11-nt target. Summed up:
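Recombination efficiency was calculated from barcode counts at recombinant junctions, normalized to counts per million, averaged and corrected by the control. Each value is given as log10(CPM+1). The constructs were Gibson-cloned oligos (promoter, target, barcode, J23119-driven first 104 bridge RNA bases) in a vector with the remaining 73 bp and a T7-inducible recombinase, co-electroporated into E. coli with a donor plasmid and plated in duplicate on chloramphenicol/ampicillin LB agar (control) or chloramphenicol/ampicillin/kanamycin with 0.1 mM IPTG.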

The text below walks through data of the supplement of paper PMC11208160.

As for “GGGCGGATATGGGTTCTAACCTGTTGCGGAG [GGGCGGACTCC_LTGcore_TA_RTGcore_CT] (site GGGCGGACTCC) (LTG core: TA, RTG core: CT)”, the “recombinant barcode read abundance (log10)” value turned out to be 0.0954.

As to “GGGCGGATATGGGTTCTAACCTGTTGCGGTA [GGGCGGACTCC_LTGcore_TA_RTGcore_TA] (site GGGCGGACTCC) (LTG core: TA, RTG core: TA)”, the “recombinant barcode read abundance (log10)” value was 0.0888. As for “GGGCGGATGTGGGTTCTAACCTGTTGCGGCA [GGGCGGACTCC_LTGcore_TG_RTGcore_TG] (site GGGCGGACTCC) (LTG core: TG, RTG core: TG)”, the “recombinant barcode read abundance (log10)” value stood at 0.182. In the case of “GGGCGTGACTGGGTTCTAACCTGTTGCCTAG [GGGCGTGCTAG_LTGcore_AC_RTGcore_CT] (site GGGCGTGCTAG) (LTG core: AC, RTG core: CT)” it was 0.437; in that of “GGGCGTGACTGGGTTCTAACCTGTTGCCTGT [GGGCGTGCTAG_LTGcore_AC_RTGcore_AC] (site GGGCGTGCTAG) (LTG core: AC, RTG core: AC)”, 0.0793. The result for “GGGCGTGAGTGGGTTCTAACCTGTTGCCTCT [GGGCGTGCTAG_LTGcore_AG_RTGcore_AG] (site GGGCGTGCTAG) (LTG core: AG, RTG core: AG)” reads 0.523.

Turning to “GGGCGTGATTGGGTTCTAACCTGTTGCCTAG [GGGCGTGCTAG_LTGcore_AT_RTGcore_CT] (site GGGCGTGCTAG) (LTG core: AT, RTG core: CT)”, the “recombinant barcode read abundance (log10)” value is 0.308. In the case of “GGGCGTGCGTGGGTTCTAACCTGTTGCCTCG [GGGCGTGCTAG_LTGcore_CG_RTGcore_CG] (site GGGCGTGCTAG) (LTG core: CG, RTG core: CG)” it was 0.0415; in that of “GGGCGTGCTTGGGTTCTAACCTGTTGCCTAA [GGGCGTGCTAG_LTGcore_CT_RTGcore_TT] (site GGGCGTGCTAG) (LTG core: CT, RTG core: TT)”, 0.104. In the case of “GGGCGTGCTTGGGTTCTAACCTGTTGCCTAC [GGGCGTGCTAG_LTGcore_CT_RTGcore_GT] (site GGGCGTGCTAG) (LTG core: CT, RTG core: GT)” it was 0.107; in that of “GGGCGTGCTTGGGTTCTAACCTGTTGCCTAG [GGGCGTGCTAG_LTGcore_CT_RTGcore_CT] (site GGGCGTGCTAG) (LTG core: CT, RTG core: CT)”, 1.41; in that of “GGGCGTGCTTGGGTTCTAACCTGTTGCCTAT [GGGCGTGCTAG_LTGcore_CT_RTGcore_AT] (site GGGCGTGCTAG) (LTG core: CT, RTG core: AT)”, 1.05.

“GGGCGTGCTTGGGTTCTAACCTGTTGCCTGA [GGGCGTGCTAG_LTGcore_CT_RTGcore_TC] (site GGGCGTGCTAG) (LTG core: CT, RTG core: TC)”: the “recombinant barcode read abundance (log10)” value was 1.02. In the case of “GGGCGTGCTTGGGTTCTAACCTGTTGCCTGT [GGGCGTGCTAG_LTGcore_CT_RTGcore_AC] (site GGGCGTGCTAG) (LTG core: CT, RTG core: AC)” it was 0.536. “GGGCGTGCTTGGGTTCTAACCTGTTGCCTTT [GGGCGTGCTAG_LTGcore_CT_RTGcore_AA] (site GGGCGTGCTAG) (LTG core: CT, RTG core: AA)”: the “recombinant barcode read abundance (log10)” value stood at 0.509.

Consider “GGGCGTGTCTGGGTTCTAACCTGTTGCCTGA [GGGCGTGCTAG_LTGcore_TC_RTGcore_TC] (site GGGCGTGCTAG) (LTG core: TC, RTG core: TC)”, for which the “recombinant barcode read abundance (log10)” value is 0.157. In the case of “GGGCGTGTGTGGGTTCTAACCTGTTGCCTCA [GGGCGTGCTAG_LTGcore_TG_RTGcore_TG] (site GGGCGTGCTAG) (LTG core: TG, RTG core: TG)” it was 0.0289; in that of “GGTGCCCACTGGGTTCTAACCTGTTGCCGAG [GGTGCCCCTCG_LTGcore_AC_RTGcore_CT] (site GGTGCCCCTCG) (LTG core: AC, RTG core: CT)”, 0.416; in that of “GGTGCCCATTGGGTTCTAACCTGTTGCCGAG [GGTGCCCCTCG_LTGcore_AT_RTGcore_CT] (site GGTGCCCCTCG) (LTG core: AT, RTG core: CT)”, 0.111. In the case of “GGTGCCCCTTGGGTTCTAACCTGTTGCCGAA [GGTGCCCCTCG_LTGcore_CT_RTGcore_TT] (site GGTGCCCCTCG) (LTG core: CT, RTG core: TT)”, the “recombinant barcode read abundance (log10)” value is 0.481. In the case of “GGTGCCCCTTGGGTTCTAACCTGTTGCCGAG [GGTGCCCCTCG_LTGcore_CT_RTGcore_CT] (site GGTGCCCCTCG) (LTG core: CT, RTG core: CT)” it was 1.46; in that of “GGTGCCCCTTGGGTTCTAACCTGTTGCCGCA [GGTGCCCCTCG_LTGcore_CT_RTGcore_TG] (site GGTGCCCCTCG) (LTG core: CT, RTG core: TG)”, 0.0728.

As to “GGTGCCCCTTGGGTTCTAACCTGTTGCCGTT [GGTGCCCCTCG_LTGcore_CT_RTGcore_AA] (site GGTGCCCCTCG) (LTG core: CT, RTG core: AA)”, the “recombinant barcode read abundance (log10)” value came out at 0.0623. In the case of “GTCGCCCACTGGGTTCTAACCTGTTGCTAGT [GTCGCCCCTTA_LTGcore_AC_RTGcore_AC] (site GTCGCCCCTTA) (LTG core: AC, RTG core: AC)” it was 0.348; in that of “GTCGCCCATTGGGTTCTAACCTGTTGCTAAT [GTCGCCCCTTA_LTGcore_AT_RTGcore_AT] (site GTCGCCCCTTA) (LTG core: AT, RTG core: AT)”, 0.182; in that of “GTCGCCCCTTGGGTTCTAACCTGTTGCTAGT [GTCGCCCCTTA_LTGcore_CT_RTGcore_AC] (site GTCGCCCCTTA) (LTG core: CT, RTG core: AC)”, 0.644. In the case of “GTCGCCCCTTGGGTTCTAACCTGTTGCTATC [GTCGCCCCTTA_LTGcore_CT_RTGcore_GA] (site GTCGCCCCTTA) (LTG core: CT, RTG core: GA)” it was 0.434; in that of “GTCGCCCTATGGGTTCTAACCTGTTGCTAAG [GTCGCCCCTTA_LTGcore_TA_RTGcore_CT] (site GTCGCCCCTTA) (LTG core: TA, RTG core: CT)”, 0.0747.

For the sequence “GTCGCCCTGTGGGTTCTAACCTGTTGCTAAG [GTCGCCCCTTA_LTGcore_TG_RTGcore_CT] (site GTCGCCCCTTA) (LTG core: TG, RTG core: CT)”, the “recombinant barcode read abundance (log10)” value was determined as 0.405. The result for “TAAGAATACTGGGTTCTAACCTGTTGCCTAG [TAAGAATCTAG_LTGcore_AC_RTGcore_CT] (site TAAGAATCTAG) (LTG core: AC, RTG core: CT)” reads 0.0833. Take “TAAGAATCCTGGGTTCTAACCTGTTGCCTGG [TAAGAATCTAG_LTGcore_CC_RTGcore_CC] (site TAAGAATCTAG) (LTG core: CC, RTG core: CC)”: the “recombinant barcode read abundance (log10)” value came out at 0.0748.

Regarding “TAAGAATCGTGGGTTCTAACCTGTTGCCTAG [TAAGAATCTAG_LTGcore_CG_RTGcore_CT] (site TAAGAATCTAG) (LTG core: CG, RTG core: CT)”, the “recombinant barcode read abundance (log10)” value is 0.349.
